Values of other authors, collected in patent US20050119262A1, “Method for preventing or treating an optic neuropathy with a cox-2 inhibitor and an intraocular pressure reducing agent” (Pharmacia Corporation, priority 2003, published 2005).

Settings: patients with ocular hypertension and glaucoma

CC(=O)Oc1ccccc1C(=O)O [acetylsalicylic acid]
effect on IOP: no affect on IOP
